Source: PMC9871250, “Identification of an indole biodegradation gene cluster from Providencia rettgeri and its contribution in selectively biosynthesizing Tyrian purple” (Frontiers in Bioengineering and Biotechnology, 2023)

Biological target: T1, GS-D (Providencia rettgeri, UniProt A0ACG1W3V9)
T1 construct: gene KAH49_07450; full length, N-terminal 6xHis, pET28a in E. coli BL21(DE3), Ni-NTA
T1 sequence (A0ACG1W3V9 1-176): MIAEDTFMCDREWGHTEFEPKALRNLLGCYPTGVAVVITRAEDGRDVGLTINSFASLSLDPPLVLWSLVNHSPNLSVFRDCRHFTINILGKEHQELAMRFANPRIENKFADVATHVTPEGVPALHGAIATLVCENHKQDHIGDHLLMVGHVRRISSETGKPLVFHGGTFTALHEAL
Experiment: NADH oxidation, absorbance at […] nm
Type: biochemical
Details: pH 8.0, 30 °C, 250 μM NADH, 100 μM FAD

NC(=O)C1=CN([C@@H]2O[C@H](COP(=O)(O)OP(=O)(O)OC[C@H]3O[C@@H](n4cnc5c(N)ncnc54)[C@H](O)[C@@H]3O)[C@@H](O)[C@H]2O)C=CC1 [NADH]
NADH oxidation, absorbance at 340 nm: oxidation of NADH demonstrated the flavin reductase activity of the GS-D reductase
